Patent publication US10195282B2, “Use of alginate formulation for intraincisional drug delivery” (UNIVERSITY OF SOUTHERN CALIFORNIA, priority 2014, dated 2019)
Non-standard residues stand in square brackets, D forms with d. Residues, ends and D or L forms follow the SMILES beside them. Nle = CCCC[C@H](N)C(=O)O

Test system: full thickness incision wounds in a rat model
Assay: Scar formation dose-response of NorLeu3-A(1-7) in 2.5% alginate crosslinked with 5 mM CaCl2 (Example 3)
Type: in vivo, Sprague Dawley rats
Conditions: 1 mg/ml in the formulation; compared with surgical and vehicle controls; day 21
Procedure: This example was designed to determine the formation and remodeling of scar by clinical and histological evaluations in full thickness incision wounds in a rat model. Various doses of active ingredient were delivered in 2.5% alginate crosslinked with 5 mM CaCl2. • Species: • Sprague Dawley • Female (n=5/group for histology; 3/group for tensile strength) • Parameters Measured: • Appearance of Healing Wound (Gross and Histological of Dense Collagen by Image J) • Tensile Strength • Central, Blinded Adjudication of Photos on Day 21 • Photographic serial imaging • Experimental Groups: Surgical control, vehicle (2.5% alginate crosslinked with 5 mM CaCl2) and 2.5% alginate crosslinked with 5 mM CaCl2 with 0.3, 1, 3 or 5 mg/ml DSC127) Methods
Alginate was supplied by FMC BioPolymer. […]
During the experimental period, Sprague Dawley rats, 200-225 grams, were housed one per cage and maintained in a central animal care facility with a 12-hour light/dark cycle. […] The six tests groups that were evaluated are: surgical control, vehicle control and 30, 100, 300 or 500 μg/wound of NorLeu3-A(1-7) in the vehicle. […] The animals were monitored for breathing, urination and movement during the postoperative interval. […] During the first two weeks after surgery, scabbing, dehiscence and inflammation were assessed. […]
Scabbing was assessed on a 4-point scale (0,1,2,3) for none, mild, moderate and severe, respectively. […]

Inflammation at the site of the incision scored on histological sections: trend towards reduced inflammation
Compound: CCCC[C@H](NC(=O)[C@H](CCCNC(=N)N)NC(=O)[C@@H](N)CC(=O)O)C(=O)N[C@@H](Cc1ccc(O)cc1)C(=O)N[C@H](C(=O)N[C@@H](Cc1c[nH]cn1)C(=O)N1CCC[C@H]1C(=O)O)[C@@H](C)CC [NorLeu3-A(1-7), Asp-Arg-Nle-Tyr-Ile-His-Pro] (H-DR[Nle]YIHP-OH; N-terminus and C-terminus assumed)
